# Reference: PMC9144902, “Metal(II) Complexes of the Fluoroquinolone Fleroxacin: Synthesis, Characterization and Biological Profile” (Pharmaceutics, 2022)
# Key:
# [1] = biological target: T1, bovine serum albumin (BSA) (Bos taurus, UniProt P02769); assay: Albumin binding by tryptophan fluorescence emission quenching; conditions: for K(BSA), BSA-binding constant / kq(BSA), BSA-quenching constant: BSA 3 μM; for K(BSA), BSA-binding constant: buffer pH 7.0, Scatchard equation; for kq(BSA), BSA-quenching constant: buffer pH 7.0, λexc 295 nm, Stern–Volmer, τ0 = 10^–8 s; for BSA fluorescence, % of the initial fluorescence intensity (I/Io): λem,max = 342 nm, final value of titration (Figure S11)
# T1 construct: purchased
# T1 sequence (P02769 25-607): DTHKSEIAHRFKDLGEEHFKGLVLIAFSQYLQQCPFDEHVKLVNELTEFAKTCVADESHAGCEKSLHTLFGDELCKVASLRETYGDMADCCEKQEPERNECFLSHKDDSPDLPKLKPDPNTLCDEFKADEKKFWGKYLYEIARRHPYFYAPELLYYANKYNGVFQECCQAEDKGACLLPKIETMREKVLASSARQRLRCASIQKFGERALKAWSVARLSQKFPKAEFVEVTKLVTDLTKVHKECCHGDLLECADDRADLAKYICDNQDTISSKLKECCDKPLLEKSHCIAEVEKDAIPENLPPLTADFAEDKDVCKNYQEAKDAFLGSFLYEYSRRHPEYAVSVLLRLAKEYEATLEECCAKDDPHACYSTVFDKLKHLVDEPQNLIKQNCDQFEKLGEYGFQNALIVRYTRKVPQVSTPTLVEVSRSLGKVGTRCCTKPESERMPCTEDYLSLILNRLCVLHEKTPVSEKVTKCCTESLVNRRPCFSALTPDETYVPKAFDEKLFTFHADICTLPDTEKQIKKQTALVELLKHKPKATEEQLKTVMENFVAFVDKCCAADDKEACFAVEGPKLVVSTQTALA
# Outline: (§1)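 Compound binding to serum albumin monitored by quenching of albumin tryptophan fluorescence emission. Quenching constants (kq) derived from Stern–Volmer equation; binding constants (K) from Scatchard equation.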
# [2] = biological target: T2, human serum albumin (HSA) (Homo sapiens, UniProt P02768); assay: as above; conditions: for K(HSA), HSA-binding constant / kq(HSA), HSA-quenching constant: HSA 3 μM; for K(HSA), HSA-binding constant: buffer pH 7.0, Scatchard equation; for kq(HSA), HSA-quenching constant: buffer pH 7.0, λexc 295 nm, Stern–Volmer, τ0 = 10^–8 s; for HSA fluorescence, % of the initial fluorescence intensity (I/Io): λem,max = 351 nm, final value of titration (Figure S10)
# T2 construct: purchased
# T2 sequence (P02768 25-609): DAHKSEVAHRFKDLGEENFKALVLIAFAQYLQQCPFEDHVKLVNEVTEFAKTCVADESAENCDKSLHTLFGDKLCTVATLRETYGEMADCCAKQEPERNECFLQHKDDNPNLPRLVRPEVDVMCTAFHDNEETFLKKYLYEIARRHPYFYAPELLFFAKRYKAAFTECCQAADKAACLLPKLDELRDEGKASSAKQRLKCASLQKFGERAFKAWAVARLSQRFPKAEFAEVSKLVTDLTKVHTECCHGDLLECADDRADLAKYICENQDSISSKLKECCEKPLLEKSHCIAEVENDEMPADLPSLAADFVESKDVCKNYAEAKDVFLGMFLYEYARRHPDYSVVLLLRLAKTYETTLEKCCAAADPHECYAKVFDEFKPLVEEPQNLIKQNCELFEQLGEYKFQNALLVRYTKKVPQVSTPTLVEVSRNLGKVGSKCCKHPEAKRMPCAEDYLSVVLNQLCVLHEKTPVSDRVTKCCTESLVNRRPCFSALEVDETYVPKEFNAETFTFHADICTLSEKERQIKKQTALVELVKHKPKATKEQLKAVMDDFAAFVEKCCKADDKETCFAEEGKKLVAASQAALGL
# Outline: as §1
# CT DNA = assay: Study of the DNA-interaction by cyclic voltammetry; type: binding, calf; conditions: for Epa(f), anodic potential / Epc(f), cathodic potential / Epa(b), anodic potential / Epc(b), cathodic potential: M(II)/M(I), 1:2 DMSO/buffer; for Epa(f), anodic potential / Epc(f), cathodic potential: absence of CT DNA; for Epa(b), anodic potential / Epc(b), cathodic potential: presence of CT DNA; for Kr/Kox, ratio of equilibrium DNA-binding constants (reduced/oxidized form): eq. S6
# Experimental: Cyclic voltammetry was used to study the interaction of the complexes with CT DNA. An intercalative interaction will induce a positive shift for the electrochemical potential(s) of metal oxidation/reduction, whereas, in the case of electrostatic interaction, a negative shift in the potential(s) may occur. The cyclic voltammograms of the complexes in a 1:2 DMSO:buffer solution (0.33 mM) were recorded in the absence and presence of the CT DNA solution (Figure S13). The predominant electrochemical feature for all complexes is a positive shift in the potential in the presence of CT DNA (ΔEpc/a = (–30)–(+127) mV). Consequently, the intercalative nature of the interaction of the complexes with DNA can be inferred from the presented data.
# In order to evaluate further the redox behavior of the complexes, the corresponding equilibrium constants were calculated by determining the ratio Kr/Kox in accordance to Equation (S6), where Kox and Kr are the DNA-binding constants for the oxidized and reduced form, respectively, of the metal ions. For all complexes, the Kr/Kox ratio is close to or above 1 (Table 7), showing the selective binding of DNA to the […] form of the complexes. […]
# S3.3 Study of the DNA –interaction by cyclic vol ta mmetry
# Cyclic voltammetr y can be also used in order to calculate the corresponding equilibrium constant for the redox process. The ratio of the DNA–binding constants for the reduced (K r) and oxidized forms (Kox) of t he complex es (Kr/Kox) w as calculat ed according t o eq. S6:
# Δ = = 0.059 × lo gEE E K oxoo o (eq. S6) […]
# where Eo and Eo are the formal potentials of M(II)/M(I) redox couple in the fully bound and […]
# free complexes, respectivel y. Kox and Kr are the binding constants for the binding of the oxidized and reduced species to DNA, respectivel y [S8] . […]
# [3] = test system: Xanthomonas campestris ATCC 1395; assay: Antimicrobial activity, MIC determination; type: cell-based; conditions: X. campestris; 24-h incubation, 28°C
# Outline: (§2)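 Broth microdilution MIC in Mueller–Hinton broth, inoculum 0.5 McFarland, compounds added from DMSO working solutions at 2:98. After 24 h (37°C; X. campestris at 28°C), MIC is the lowest concentration inhibiting visible growth, by OD600 turbidity, in at least two of triplicate cultures.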
# [4] = test system: Bacillus subtilis ATCC 6633; assay: Antimicrobial activity, MIC determination; type: cell-based; conditions: B. subtilis; 24-h incubation, 37°C
# Outline: as §2
# [5] = test system: Staphylococcus aureus ATCC 6538; assay: Antimicrobial activity, MIC determination; type: cell-based; conditions: S. aureus; 24-h incubation, 37°C
SMILES,"K(BSA), BSA-binding constant [1]","kq(BSA), BSA-quenching constant [1]","BSA fluorescence, % of the initial fluorescence intensity (I/Io) [1] [%]","K(HSA), HSA-binding constant [2]","kq(HSA), HSA-quenching constant [2]","HSA fluorescence, % of the initial fluorescence intensity (I/Io) [2] [%]","Epa(f), anodic potential (CT DNA) [mV]","Epc(f), cathodic potential (CT DNA) [mV]","Epa(b), anodic potential (CT DNA) [mV]","Epc(b), cathodic potential (CT DNA) [mV]","Kr/Kox, ratio of equilibrium DNA-binding constants (reduced/oxidized form) (CT DNA)",MIC [3] [µg/mL],MIC (values in parentheses) [3] [µM],MIC [4] [µg/mL],MIC (values in parentheses) [4] [µM],MIC [5] [µg/mL],MIC (values in parentheses) [5] [µM]
"CN1CCN(c2c(F)cc3c(=O)c(C(=O)[O-])cn(CCF)c3c2F)CC1.[Cl-].[Cu+2].c1ccc(-c2ccccn2)nc1 [complex 6, [Cu(flrx)(bipy)Cl]]",6.12(±0.33) × 10^4 M^−1,1.59(±0.07) × 10^13 M^−1s^−1,25.7,1.02(±0.03) × 10^5 M^−1,6.08(±0.06) × 10^12 M^−1s^−1,48.5,−450,−710,−323,−740,2.28,8,12.8,8,12.8,4,6.4
"CN1CCN(c2c(F)cc3c(=O)c(C(=O)[O-])cn(CCF)c3c2F)CC1.[Cl-].[Cu+2].c1ccc(Nc2ccccn2)nc1 [complex 7, [Cu(flrx)(bipyam)Cl]]",1.26(±0.05)×10^5 M^−1,1.56(±0.04) × 10^13 M^−1s^−1,26.6,1.31(±0.05) × 10^5 M^−1,5.57(±0.18) × 10^12 M^−1s^−1,49.3,−426,−729,−300,−710,3.41,> 32,> 50.0,> 16,> 25.0,> 16,> 25.0
"CN1CCN(c2c(F)cc3c(=O)c(C(=O)[O-])cn(CCF)c3c2F)CC1.[Cl-].[Cu+2].c1cnc2c(c1)ccc1cccnc12 [complex 8, [Cu(flrx)(phen)Cl]]",5.03(±0.22) × 10^4 M^−1,1.04(±0.03) × 10^13 M^−1s^−1,34.4,3.45(±0.14) × 10^4 M^−1,4.08(±0.13) × 10^12 M^−1s^−1,56.5,−483,−725,−406,−720,2.00,8,12.3,8,12.3,8,12.3
"CN1CCN(c2c(F)cc3c(=O)c(C(=O)[O-])cn(CCF)c3c2F)CC1.CN1CCN(c2c(F)cc3c(=O)c(C(=O)[O-])cn(CCF)c3c2F)CC1.[Mn+2].c1ccc(-c2ccccn2)nc1 [complex 9, [Mn(flrx)2(bipy)]]",1.39(±0.05) × 10^5 M^−1,2.45(±0.09) × 10^13 M^−1s^−1,18.0,6.36(±0.31) × 10^4 M^−1,8.09(±0.17) × 10^12 M^−1s^−1,39.8,−475,−701,−495,−684,0.97,16,16.9,8,8.4,8,8.4
"CN1CCN(c2c(F)cc3c(=O)c(C(=O)[O-])cn(CCF)c3c2F)CC1.CN1CCN(c2c(F)cc3c(=O)c(C(=O)[O-])cn(CCF)c3c2F)CC1.[Mn+2].c1ccc(Nc2ccccn2)nc1 [complex 10, [Mn(flrx)2(bipyam)]]",6.46(±0.39) × 10^4 M^−1,1.20(±0.04) × 10^13 M^−1s^−1,31.6,8.40(±0.58) × 10^4 M^−1,8.01(±0.23) × 10^12 M^−1s^−1,47.4,−495,−706,−508,−695,0.98,> 32,> 33.2,16,16.6,16,16.6
"CN1CCN(c2c(F)cc3c(=O)c(C(=O)[O-])cn(CCF)c3c2F)CC1.CN1CCN(c2c(F)cc3c(=O)c(C(=O)[O-])cn(CCF)c3c2F)CC1.[Mn+2].c1cnc2c(c1)ccc1cccnc12 [complex 11, [Mn(flrx)2(phen)]]",1.09(±0.03) × 10^5 M^−1,1.65(±0.04) × 10^13 M^−1s^−1,25.2,1.01(±0.04) × 10^5 M^−1,1.03(±0.01) × 10^13 M^−1s^−1,34.2,−501,−706,−499,−700,1.07,16,16.4,8,8.2,8,8.2
"CN1CCN(c2c(F)cc3c(=O)c(C(=O)[O-])cn(CCF)c3c2F)CC1.CN1CCN(c2c(F)cc3c(=O)c(C(=O)[O-])cn(CCF)c3c2F)CC1.[Co+2].c1ccc(-c2ccccn2)nc1 [complex 15, [Co(flrx)2(bipy)]]",2.84(±0.11) × 10^5 M^−1,5.12(±0.17) × 10^13 M^−1s^−1,9.2,8.13(±0.25)×10^4 M^−1,1.56(±0.05) × 10^13 M^−1s^−1,26.1,−533,−701,−541,−695,0.98,16,16.8,8,8.4,4,4.2
"CN1CCN(c2c(F)cc3c(=O)c(C(=O)[O-])cn(CCF)c3c2F)CC1.CN1CCN(c2c(F)cc3c(=O)c(C(=O)[O-])cn(CCF)c3c2F)CC1.[Co+2].c1ccc(Nc2ccccn2)nc1 [complex 16, [Co(flrx)2(bipyam)]]",1.44(±0.04) × 10^5 M^−1,1.98(±0.05) × 10^13 M^−1s^−1,22.2,9.61(±0.36) × 10^4 M^−1,9.35(±0.22) × 10^12 M^−1s^−1,36.1,−466,−729,−445,−741,1.08,16,16.5,8,8.3,8,8.3
